Holding throughout (assay type): functional
In experiment [1] the test system is Rattus norvegicus. The experiment in a line: Cartilage space narrowing was measured radiographically after 42 days initial immunization with type II collagen in rats at a dose of 200 mg/kg.
The subject of experiment [2] is Rattus norvegicus. The experiment in a line: Erosions of tarsal bones measured radiographically after 42 days initial immunization with type II collagen in rats at a dose of 200 mg/kg.
The test system of experiment [3] is Rattus norvegicus. The experiment in a line: Paw diameter measured with a micrometer caliper after 42 days initial immunization with type II collagen in rats at a dose of 200 mg/kg.

`COc1ccc2c(c1)c(CC(=O)O)c(C)n2C(=O)c1ccc(Cl)cc1` [INDOMETHACIN]: the Cartilage space in the experiment with Rattus norvegicus [1] was 2.94. For the same molecule, the Erosions in the experiment on Rattus norvegicus [2] is on record as 2.94. For the same molecule, in the experiment on Rattus norvegicus [3], the Mean paw diameter was determined as 8 mm.

With `CCCCC1C(=O)N(c2ccccc2)N(c2ccccc2)C1=O` [PHENYLBUTAZONE], the Cartilage space with Rattus norvegicus [1] is recorded as 2.86. Moreover, the Erosions in the experiment with Rattus norvegicus [2] came out at 3.33. In the experiment on Rattus norvegicus [3], the Mean paw diameter stood at 8.42 mm.

`CC(C)(S)[C@@H](N)C(=O)O` [PENICILLAMINE] came in with a Cartilage space in the experiment with Rattus norvegicus [1] of 2.72. The Erosions with Rattus norvegicus [2] is recorded as 2.83. In addition, the Mean paw diameter in the experiment on Rattus norvegicus [3] was determined as 8.89 mm.

`C[C@]12C=CC(=O)C=C1CCC1[C@@H]2[C@@H](O)C[C@@]2(C)[C@H]1CC[C@]2(O)C(=O)CO` (single isomer, unassigned) [PREDNISOLONE] returned a Cartilage space in the experiment with Rattus norvegicus [1] of 3.27. The Erosions in the experiment on Rattus norvegicus [2] is listed as 3.5. The molecule also had a Mean paw diameter with Rattus norvegicus [3] of 7.92 mm.

The values are drawn from ChEMBL document CHEMBL1127288, “Derivatives of D-penicillamine as potential antiarthritic agents” (1994).
